From patent US12257247B2 (Monte Rosa Therapeutics AG, priority 2023, dated 2025) come the findings set out here.

Where two headings read alike, the source gives them in different places.

The target of the assay is T1, VAV1 (Homo sapiens, UniProt P15498+Q96SW2).
T1 construct: A heterozygous VAV1 C-terminal HiBiT knock-in pool was generated at Monte Rosa Therapeutics from a clonal Jurkat cell; endogenous in cells; host or cells: Jurkat clone stably expressing LgBiT, homozygous GSPT1-G575N; heterozygous VAV1-HiBiT knock-in pool
Briefly: VAV1 degradation activity, VAV1-HiBiT knock-in Jurkat luminescence assay (Example A, Table 1). The class given is cell-based. The following applies: VAV1-HiBiT knock-in Jurkat cells, luminescence read at 6 and 24 hours; for Dmax: Jurkat. On the procedure:
Cells were plated at 10,000 cells per well using Multiflo (BioTek) or Multi Drop Combi (Thermo Fisher) in 384-well white solid bottom plates (Corning, 3570BC) in 25 ul volume in RPMI 1640 media (Thermo Fischer, 22400105) containing 10% FBS (Corning, 35-075-CV), 1% Penicillin/Streptomycin (ThermoFisher Scientific, 15140-122), and 1% Endurazine (Nano-Glo Endurazine Live Cell Substrate (Promega, N2571)). Cells were incubated for ˜16 hours at 37° C., 5% CO2. 25 nL of a compound at 10 μM were dosed into the plate using an Echo® 650 liquid handler (Labcyte). Cells were incubated at 37° C., 5% CO2 and signal was read at 6 and 24 hours after compound addition on a Pherastar FSX using “LUM plus” optic module.
Analysis was performed in Scinamic (Scinamic, Cambridge, MA). Luminescence response (R) was calculated by the formula: response=100*(S−N)/(P−N) where S is the signal of the well, N and P the mean negative and positive control values respectively of the same plate. The luminescence response was then fitted in Scinamic using a 3-parameter agonist logistic fit (hillslope=1, EC50>0, top/bottom unconstrained).
On the technique in general: With HiBiT, luminescence reflects the tagged protein that the partner subunit can reach.

[1] abbreviates: read-out: VAV1 DC50 (nM), class.

`O=C1CC[C@](F)(c2cccc(-c3ccc(N4CCCCC4=O)cc3)c2Cl)C(=O)N1` (single isomer, unassigned) [Compound 367]: the greatest degradation seen (Dmax) was 90.6% (read-out: VAV1 Dmax %) and more than 90% (read-out: VAV1 Dmax %, class). Moreover, the half-maximal degradation concentration (DC50) (read-out: VAV1 DC50) was found to be 706 nM and the DC50 under setting [1] lay in the range of 100 to 1000 nM.
On the same counts, the results for `O=C1CC[C@@](F)(c2cccc(-c3ccc(N4CCCCC4=O)cc3)c2Cl)C(=O)N1` (single isomer, unassigned) [Compound 368] are 98.5%, more than 90%, 1.84 nM and not above 100 nM.
Turning to `CCc1cc(-c2cccc(C3CCC(=O)NC3=O)c2Cl)ccc1N` (centres unmarked) [Compound 101], the Dmax is 96% (read-out: VAV1 Dmax %) and more than 90% (read-out: VAV1 Dmax %, class). In addition, the DC50 by setting is: (read-out: VAV1 DC50) 12.3 nM; under setting [1], not above 100 nM.
On the same counts, the results for `Nc1nccn1Cc1ccc(-c2cccc(C3CCC(=O)NC3=O)c2Cl)cc1` (centres unmarked) [Compound 102] are 84.1%, 60 to 90%, 240 nM and 100 to 1000 nM.
As for `O=C1CCC(c2cccc(-c3ccc(OCc4ccccn4)cc3)c2Cl)C(=O)N1` (centres unmarked) [Compound 103], the greatest degradation seen (Dmax) is, setting by setting: (read-out: VAV1 Dmax %) 93.6%; (read-out: VAV1 Dmax %, class) more than 90%. For the same compound, the 50% degradation concentration (DC50) runs as follows: (read-out: VAV1 DC50) 45.4 nM; under setting [1], not above 100 nM.
`CN1CCN(CCOc2ccc(-c3cccc(C4CCC(=O)NC4=O)c3Cl)cc2)CC1` (centres unmarked) [Compound 104]: the greatest degradation seen (Dmax) is 81.7% (read-out: VAV1 Dmax %) and 60 to 90% (read-out: VAV1 Dmax %, class). Moreover, the DC50 reads like this: (read-out: VAV1 DC50) 59.7 nM; under setting [1], not above 100 nM.
With `Nc1ccc(-c2cccc(C3CCC(=O)NC3=O)c2Cl)cc1Cl` (centres unmarked) [Compound 105], the greatest degradation seen (Dmax) was 97.7% (read-out: VAV1 Dmax %) and more than 90% (read-out: VAV1 Dmax %, class). For the same compound, the 50% degradation concentration (DC50) is, setting by setting: (read-out: VAV1 DC50) 18.1 nM; under setting [1], not above 100 nM.
On the same counts, the results for `O=C1CCC(c2cccc(-c3ccc(C4COC(=O)N4)cc3)c2Cl)C(=O)N1` (centres unmarked) [Compound 106] are 14%, less than 60%, not below 10000 nM and more than 1000 nM.
On the same counts, the results for `O=C1CCC(c2cccc(-c3ccc(C4COC(=O)N4)c(F)c3)c2Cl)C(=O)N1` (centres unmarked) [Compound 107] are 27%, less than 60%, not below 10000 nM and more than 1000 nM.
On the same counts, the results for `COc1ccc(-c2cccc(C3CCC(=O)NC3=O)c2Cl)cc1OC(F)F` (centres unmarked) [Compound 108] are 47.8%, less than 60%, not below 10000 nM and more than 1000 nM.
Turning to `O=C1CCC(c2cccc(-c3ccc(OC4CCOC4)cc3)c2Cl)C(=O)N1` (centres unmarked) [Compound 109], the Dmax is, setting by setting: (read-out: VAV1 Dmax %) 66.4%; (read-out: VAV1 Dmax %, class) 60 to 90%. Besides, the DC50 is 678 nM (read-out: VAV1 DC50) and 100 to 1000 nM under setting [1].
On the same counts, the results for `Nc1ncn(Cc2ccc(-c3cccc(C4CCC(=O)NC4=O)c3Cl)cc2)n1` (centres unmarked) [Compound 110] are 89.2%, 60 to 90%, 22.3 nM and not above 100 nM.
`Cc1nccn1Cc1ccc(-c2cccc(C3CCC(=O)NC3=O)c2Cl)cc1` (centres unmarked) [Compound 111]: the Dmax reads like this: (read-out: VAV1 Dmax %) 87.8%; (read-out: VAV1 Dmax %, class) 60 to 90%. Moreover, the DC50 is, setting by setting: (read-out: VAV1 DC50) 49.2 nM; under setting [1], not above 100 nM.
In the case of `N#Cc1cc(-c2cccc(C3CCC(=O)NC3=O)c2Cl)ccc1O` (centres unmarked) [Compound 112], the greatest degradation seen (Dmax) (read-out: VAV1 Dmax %) is 78.2% and the Dmax (read-out: VAV1 Dmax %, class) was in the range of 60 to 90%. Also, the DC50 (read-out: VAV1 DC50) worked out at 119 nM and the 50% degradation concentration (DC50) under setting [1] lay in the range of 100 to 1000 nM.
`Nc1ccc(-c2cccc(C3CCC(=O)NC3=O)c2Cl)cc1OC(F)F` (centres unmarked) [Compound 113]: the Dmax is 64.6% (read-out: VAV1 Dmax %) and 60 to 90% (read-out: VAV1 Dmax %, class). In addition, the 50% degradation concentration (DC50) reads like this: (read-out: VAV1 DC50) 482 nM; under setting [1], 100 to 1000 nM.
In the same order, the values of `CCNc1ccc(-c2cccc(C3CCC(=O)NC3=O)c2Cl)cc1` (centres unmarked) [Compound 115] are 80.9%, 60 to 90%, 125 nM and 100 to 1000 nM.
Regarding `CNc1ccc(-c2cccc(C3CCC(=O)NC3=O)c2Cl)cc1C` (centres unmarked) [Compound 116], the Dmax is 96% (read-out: VAV1 Dmax %) and more than 90% (read-out: VAV1 Dmax %, class). Besides, the DC50 is, setting by setting: (read-out: VAV1 DC50) 22.3 nM; under setting [1], not above 100 nM.
On the same counts, the results for `O=C1CCC(c2cccc(-c3ccc(OCCCO)cc3)c2Cl)C(=O)N1` (centres unmarked) [Compound 117] are 72%, 60 to 90%, 353 nM and 100 to 1000 nM.
Consider `Nc1ccnn1Cc1ccc(-c2cccc(C3CCC(=O)NC3=O)c2Cl)cc1` (centres unmarked) [Compound 118], for which the maximal degradation (Dmax) (read-out: VAV1 Dmax %) is 89.7% and the Dmax (read-out: VAV1 Dmax %, class) was 60 to 90%. In addition, the DC50 (read-out: VAV1 DC50) came to 39.7 nM and the DC50 under setting [1] is not above 100 nM.
On to `O=C1CCC(c2cccc(-c3ccc(OCC4CCCO4)cc3)c2Cl)C(=O)N1` (centres unmarked) [Compound 119], for which the maximal degradation (Dmax) reads like this: (read-out: VAV1 Dmax %) 87.1%; (read-out: VAV1 Dmax %, class) 60 to 90%. Besides, the DC50 by setting is: (read-out: VAV1 DC50) 69.3 nM; under setting [1], not above 100 nM.
In the same order, the values of `O=C1CCC(c2cccc(-c3ccc(Cn4cccn4)cc3)c2Cl)C(=O)N1` (centres unmarked) [Compound 120] are 94%, more than 90%, 15.1 nM and not above 100 nM.
On the same counts, the results for `O=C1CN(CCOc2ccc(-c3cccc(C4CCC(=O)NC4=O)c3Cl)cc2)CCN1` (centres unmarked) [Compound 121] are 94%, more than 90%, 11 nM and not above 100 nM.
In the same order, the values of `O=C1CCC(c2cccc(-c3ccc(CCN4CCOCC4)cc3)c2Cl)C(=O)N1` (centres unmarked) [Compound 122] are 81.3%, 60 to 90%, 48.8 nM and not above 100 nM.
For `O=C1CCC(c2cccc(-c3ccc(OCc4cccnc4)cc3)c2Cl)C(=O)N1` (centres unmarked) [Compound 123], the Dmax is 96.3% (read-out: VAV1 Dmax %) and more than 90% (read-out: VAV1 Dmax %, class). The 50% degradation concentration (DC50) is, setting by setting: (read-out: VAV1 DC50) 11.6 nM; under setting [1], not above 100 nM.
With `O=C1CCC(c2cccc(-c3ccc(OCc4ccncc4)cc3)c2Cl)C(=O)N1` (centres unmarked) [Compound 124], the Dmax is 98.8% (read-out: VAV1 Dmax %) and more than 90% (read-out: VAV1 Dmax %, class). Also, the DC50 was 4.04 nM (read-out: VAV1 DC50) and not above 100 nM under setting [1].
In the same order, the values of `COc1cc(-c2cccc(C3CCC(=O)NC3=O)c2Cl)ccc1C(F)F` (centres unmarked) [Compound 125] are 75.9%, 60 to 90%, 1530 nM and more than 1000 nM.
On the same counts, the results for `COCCCOc1ccc(-c2cccc(C3CCC(=O)NC3=O)c2Cl)cc1` (centres unmarked) [Compound 126] are 91.4%, more than 90%, 127 nM and 100 to 1000 nM.
`Cc1cc(C)n(Cc2ccc(-c3cccc(C4CCC(=O)NC4=O)c3Cl)cc2)n1` (centres unmarked) [Compound 127]: the greatest degradation seen (Dmax) reads like this: (read-out: VAV1 Dmax %) 92.4%; (read-out: VAV1 Dmax %, class) more than 90%. In addition, the DC50 (read-out: VAV1 DC50) worked out at 39 nM and the half-maximal degradation concentration (DC50) under setting [1] is not above 100 nM.
On the same counts, the results for `CC(=O)Nc1ccc(-c2cccc(C3CCC(=O)NC3=O)c2Cl)cc1` (centres unmarked) [Compound 128] are 81.1%, 60 to 90%, 67.4 nM and not above 100 nM.
With `CC(C)Nc1ccc(-c2cccc(C3CCC(=O)NC3=O)c2Cl)cc1` (centres unmarked) [Compound 129, 3-(2-chloro-4′-(isopropylamino)-[1,1′-biphenyl]-3-yl)piperidine-2,6-dione], the Dmax reads like this: (read-out: VAV1 Dmax %) 68.2%; (read-out: VAV1 Dmax %, class) 60 to 90%. Also, the 50% degradation concentration (DC50) is, setting by setting: (read-out: VAV1 DC50) 240 nM; under setting [1], 100 to 1000 nM.
On the same counts, the results for `Nc1ccc(-c2cccc(C3CCC(=O)NC3=O)c2Cl)cc1` (centres unmarked) [Compound 130, 3-(4′-amino-2-chloro-[1,1′-biphenyl]-3-yl)piperidine-2,6-dione] are 84.6%, 60 to 90%, 37.1 nM and not above 100 nM.
On the same counts, the results for `Cc1cc(-c2cccc(C3CCC(=O)NC3=O)c2Cl)ccc1N` (centres unmarked) [Compound 131] are 94.9%, more than 90%, 7.27 nM and not above 100 nM.
On the same counts, the results for `COc1cc(-c2cccc(C3CCC(=O)NC3=O)c2Cl)ccc1C` (centres unmarked) [Compound 132] are 84.5%, 60 to 90%, 475 nM and 100 to 1000 nM.
`N#Cc1ccc(-c2cccc(C3CCC(=O)NC3=O)c2Cl)cc1N` (centres unmarked) [Compound 133]: the maximal degradation (Dmax) (read-out: VAV1 Dmax %) came to 79% and the maximal degradation (Dmax) (read-out: VAV1 Dmax %, class) was 60 to 90%. In addition, the DC50 reads like this: (read-out: VAV1 DC50) 427 nM; under setting [1], 100 to 1000 nM.
For `CNc1ccc(-c2cccc(C3CCC(=O)NC3=O)c2Cl)cc1` (centres unmarked) [Compound 134, 3-(2-chloro-4′-(methylamino)-[1,1′-biphenyl]-3-yl)piperidine-2,6-dione], the “VAV1 Dmax %” value is on record as 76.45%. The maximal degradation (Dmax) (read-out: VAV1 Dmax %) was 85.7%. In addition, the Dmax (read-out: VAV1 Dmax %, class) was more than 90%. Moreover, the DC50 (read-out: VAV1 DC50) is 90.9 nM.

Usually Dmax stands for the largest share of the target that was removed. One may read the DC50 as the midpoint of the concentration-degradation curve.
